Laboratory results reported in US10272045B2 (priority 2015, dated 2019).

How the values were obtained:
[1] = human, in vivo, cited from earlier work
[2] = dog, in vivo

## arsenious acid [AsIII]
[1]; 0.15 mg/kg
  time to peak plasma concentration (end of infusion): 2 h
[1]
  accumulation, Day 25 versus Day 1 of Cycle 1: ~2 fold
  mean elimination half-life: 10 to 14 h
  renal clearance: 9 L/h
  total clearance: 49 L/h
  volume of distribution (Vss): 562 L

## O=[As]O[As]=O (stereo not drawn) [SV100]
[2]
  oral absorption: very limited absorption
  oral bioavailability (F^b %): < 10%

## arsenic acid [Asv]
[1]
  level in plasma: relatively low levels
